Laboratory results published in PubChem BioAssay (NCI).
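1) Cells in 96-well plates. 2) Compound, 48 h, 5 concentrations. 3) Linear interpolation between surrounding doses. 4) Unreached endpoint = highest concentration. GI50 = concentration required for 50% inhibition of growth. TGI marks complete inhibition of growth.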

Columns and labels:
Experiment in all cases: inhibition of tumour cell growth, NCI panel, 48 h
IGROV1 ovarian = tested on: IGROV1 ovarian
SW-620 colon = tested on: SW-620 colon
MDA-MB-231 breast = tested on: MDA-MB-231 breast
NCI/ADR-RES ovarian = tested on: NCI/ADR-RES ovarian
UACC-62 melanoma = tested on: UACC-62 melanoma
HS 578T breast = tested on: HS 578T breast
HL-60(TB) leukemia = tested on: HL-60(TB) leukemia
HCT-15 colon = tested on: HCT-15 colon
UO-31 renal = tested on: UO-31 renal
SF-295 CNS = tested on: SF-295 CNS
OVCAR-4 ovarian = tested on: OVCAR-4 ovarian
SK-OV-3 ovarian = tested on: SK-OV-3 ovarian
SK-MEL-2 melanoma = tested on: SK-MEL-2 melanoma
COLO 205 colon = tested on: COLO 205 colon
CAKI-1 renal = tested on: CAKI-1 renal
T-47D breast = tested on: T-47D breast
NCI-H226 lung = tested on: NCI-H226 lung
MOLT-4 leukemia = tested on: MOLT-4 leukemia
U251 CNS = tested on: U251 CNS
PC-3 prostate = tested on: PC-3 prostate
OVCAR-8 ovarian = tested on: OVCAR-8 ovarian
OVCAR-5 ovarian = tested on: OVCAR-5 ovarian
DU-145 prostate = tested on: DU-145 prostate
MALME-3M melanoma = tested on: MALME-3M melanoma
786-0 renal = tested on: 786-0 renal
SK-MEL-28 melanoma = tested on: SK-MEL-28 melanoma
SF-539 CNS = tested on: SF-539 CNS
SN12C renal = tested on: SN12C renal
MDA-MB-435 = tested on: MDA-MB-435
HOP-92 NSCLC = tested on: HOP-92 NSCLC
EKVX NSCLC = tested on: EKVX NSCLC
BT-549 breast = tested on: BT-549 breast
KM12 colon = tested on: KM12 colon
K-562 leukemia = tested on: K-562 leukemia
HCC-2998 colon = tested on: HCC-2998 colon
NCI-H522 lung = tested on: NCI-H522 lung
RXF 393 renal = tested on: RXF 393 renal
OVCAR-3 ovarian = tested on: OVCAR-3 ovarian
SK-MEL-5 melanoma = tested on: SK-MEL-5 melanoma
NCI-H460 lung = tested on: NCI-H460 lung
MCF7 breast = tested on: MCF7 breast
CCRF-CEM leukemia = tested on: CCRF-CEM leukemia
NCI-H23 lung = tested on: NCI-H23 lung
SNB-19 CNS = tested on: SNB-19 CNS
A549 NSCLC = tested on: A549 NSCLC
ACHN renal = tested on: ACHN renal
TK-10 renal = tested on: TK-10 renal
HOP-62 NSCLC = tested on: HOP-62 NSCLC
M14 melanoma = tested on: M14 melanoma
RPMI-8226 leukemia = tested on: RPMI-8226 leukemia
UACC-257 melanoma = tested on: UACC-257 melanoma
HT29 colon = tested on: HT29 colon
A498 renal = tested on: A498 renal
SR leukemia = tested on: SR leukemia
HCT-116 colon = tested on: HCT-116 colon
SF-268 CNS = tested on: SF-268 CNS
SNB-75 CNS = tested on: SNB-75 CNS
LOX IMVI melanoma = tested on: LOX IMVI melanoma

## CCOC(=O)C1=C(N)Oc2c(sc3c(C)cccc23)C1c1ccc(F)cc1 (stereo not given)
IGROV1 ovarian
  GI50: 0.475 µM
  TGI: 13.5 µM
SW-620 colon
  GI50: 0.453 µM
  TGI: 15.9 µM
MDA-MB-231 breast
  GI50: 2.37 µM
  TGI: 16 µM
NCI/ADR-RES ovarian
  GI50: 0.384 µM
  TGI: 14.5 µM
UACC-62 melanoma
  GI50: 0.399 µM
  TGI: 13.5 µM
HS 578T breast
  GI50: 0.472 µM
  TGI: 7.17 µM
HL-60(TB) leukemia
  GI50: 0.374 µM
  TGI: 4.62 µM
HCT-15 colon
  GI50: 0.415 µM
  TGI: 10.9 µM
UO-31 renal
  GI50: 0.583 µM
  TGI: 18.3 µM
SF-295 CNS
  GI50: 0.297 µM
  TGI: 2.41 µM
OVCAR-4 ovarian
  GI50: 3.33 µM
  TGI: 18.3 µM
SK-OV-3 ovarian
  GI50: 11.5 µM
  TGI: 32.3 µM
SK-MEL-2 melanoma
  GI50: 5.39 µM
  TGI: 24.8 µM
COLO 205 colon
  GI50: 0.633 µM
  TGI: 5.77 µM
CAKI-1 renal
  GI50: 0.413 µM
  TGI: 14.9 µM
T-47D breast
  GI50: 2.61 µM
  TGI: 26.4 µM
NCI-H226 lung
  GI50: 0.579 µM
  TGI: 10.6 µM
MOLT-4 leukemia
  GI50: 1.88 µM
  TGI: 17.5 µM
U251 CNS
  GI50: 0.58 µM
  TGI: 17 µM
PC-3 prostate
  GI50: 0.496 µM
  TGI: 14.8 µM
OVCAR-8 ovarian
  GI50: 0.581 µM
  TGI: 18.1 µM
OVCAR-5 ovarian
  GI50: 1.67 µM
  TGI: 17.6 µM
DU-145 prostate
  GI50: 0.849 µM
  TGI: 13.5 µM
MALME-3M melanoma
  GI50: 0.588 µM
  TGI: 20.8 µM
786-0 renal
  GI50: 1.25 µM
  TGI: 17.9 µM
SK-MEL-28 melanoma
  GI50: 8.71 µM
  TGI: 22.1 µM
SF-539 CNS
  GI50: 0.36 µM
  TGI: 3.48 µM
SN12C renal
  GI50: 1.11 µM
  TGI: 14.5 µM
MDA-MB-435
  GI50: 0.21 µM
  TGI: 0.464 µM
HOP-92 NSCLC
  GI50: 2.13 µM
  TGI: 13.4 µM
EKVX NSCLC
  GI50: 0.88 µM
  TGI: 19.7 µM
BT-549 breast
  GI50: 2.07 µM
  TGI: 12.6 µM
KM12 colon
  GI50: 0.464 µM
  TGI: 13.6 µM
K-562 leukemia
  GI50: 0.375 µM
  TGI: > 42.7 µM
HCC-2998 colon
  GI50: 1.72 µM
  TGI: 8.78 µM
NCI-H522 lung
  GI50: 0.35 µM
  TGI: 3.29 µM
RXF 393 renal
  GI50: 0.242 µM
  TGI: 0.639 µM
OVCAR-3 ovarian
  GI50: 0.403 µM
  TGI: 13.1 µM
SK-MEL-5 melanoma
  GI50: 1.18 µM
  TGI: 8.49 µM
NCI-H460 lung
  GI50: 0.415 µM
  TGI: 11 µM
MCF7 breast
  GI50: 0.47 µM
  TGI: 11.4 µM
CCRF-CEM leukemia
  GI50: 0.559 µM
  TGI: 21.6 µM
NCI-H23 lung
  GI50: 0.808 µM
  TGI: 14.3 µM
SNB-19 CNS
  GI50: 0.621 µM
  TGI: 16.3 µM
A549 NSCLC
  GI50: 0.804 µM
  TGI: 17.2 µM
ACHN renal
  GI50: 0.692 µM
  TGI: 15.9 µM
TK-10 renal
  GI50: 13.2 µM
  TGI: 29.5 µM
HOP-62 NSCLC
  GI50: 0.618 µM
  TGI: 20.1 µM
M14 melanoma
  GI50: 0.486 µM
  TGI: 14.5 µM
RPMI-8226 leukemia
  GI50: 0.489 µM
  TGI: 5.38 µM
UACC-257 melanoma
  GI50: 12.6 µM
  TGI: 27.7 µM
HT29 colon
  GI50: 0.938 µM
  TGI: 12.8 µM
A498 renal
  GI50: 0.211 µM
  TGI: 1.26 µM
SR leukemia
  GI50: 0.47 µM
  TGI: 17.9 µM
HCT-116 colon
  GI50: 0.429 µM
  TGI: 11.8 µM
SF-268 CNS
  GI50: 1.61 µM
  TGI: 19.4 µM
SNB-75 CNS
  GI50: 0.265 µM
  TGI: 11.7 µM
LOX IMVI melanoma
  GI50: 0.596 µM
  TGI: 12.3 µM

## O=C(CCN1CCOCC1)Nc1cccc(-n2cc(-c3ccncc3)c(-c3ccc(Cl)c(O)c3)n2)c1
IGROV1 ovarian
  GI50: 3.52 µM
  TGI: 21.5 µM
SW-620 colon
  GI50: 1.56 µM
  TGI: 12.6 µM
MDA-MB-231 breast
  GI50: 2.6 µM
  TGI: 6.84 µM
NCI/ADR-RES ovarian
  GI50: 2.29 µM
  TGI: > 100 µM
UACC-62 melanoma
  GI50: 1.67 µM
  TGI: 13.6 µM
HS 578T breast
  GI50: 3.17 µM
  TGI: 25.8 µM
HL-60(TB) leukemia
  GI50: 2.37 µM
  TGI: 6.61 µM
HCT-15 colon
  GI50: 1.24 µM
  TGI: 10.8 µM
UO-31 renal
  GI50: 1.69 µM
  TGI: 11 µM
SF-295 CNS
  GI50: 1.31 µM
  TGI: 3.38 µM
OVCAR-4 ovarian
  GI50: 3.07 µM
  TGI: 17.7 µM
SK-OV-3 ovarian
  GI50: 3.51 µM
  TGI: 14.4 µM
SK-MEL-2 melanoma
  GI50: 1.85 µM
  TGI: 6.58 µM
COLO 205 colon
  GI50: 1.66 µM
  TGI: 4.27 µM
T-47D breast
  GI50: 1.74 µM
  TGI: 9.75 µM
NCI-H226 lung
  GI50: 4.98 µM
  TGI: 21.4 µM
MOLT-4 leukemia
  GI50: 2.65 µM
  TGI: 11.9 µM
U251 CNS
  GI50: 3.32 µM
  TGI: 12.8 µM
PC-3 prostate
  GI50: 1.74 µM
  TGI: 12.9 µM
OVCAR-8 ovarian
  GI50: 3.71 µM
  TGI: 57.5 µM
OVCAR-5 ovarian
  GI50: 4.07 µM
  TGI: 18.4 µM
DU-145 prostate
  GI50: 2.49 µM
  TGI: 11.7 µM
MALME-3M melanoma
  GI50: 1.65 µM
  TGI: 10.8 µM
786-0 renal
  GI50: 1.9 µM
  TGI: 4.75 µM
SK-MEL-28 melanoma
  GI50: 1.53 µM
  TGI: 3.33 µM
SF-539 CNS
  GI50: 1.77 µM
  TGI: 3.72 µM
SN12C renal
  GI50: 3.74 µM
  TGI: 23.6 µM
MDA-MB-435
  GI50: 0.313 µM
  TGI: 1.29 µM
HOP-92 NSCLC
  GI50: 2.06 µM
  TGI: 14 µM
EKVX NSCLC
  GI50: 3.63 µM
  TGI: 20.4 µM
BT-549 breast
  GI50: 4.12 µM
  TGI: 18.1 µM
KM12 colon
  GI50: 2.46 µM
  TGI: 11.5 µM
K-562 leukemia
  GI50: 1.76 µM
  TGI: 11.4 µM
HCC-2998 colon
  GI50: 4.57 µM
  TGI: 17.3 µM
NCI-H522 lung
  GI50: 0.448 µM
  TGI: 5.4 µM
RXF 393 renal
  GI50: 1.39 µM
  TGI: 4.66 µM
OVCAR-3 ovarian
  GI50: 0.644 µM
  TGI: 7.16 µM
SK-MEL-5 melanoma
  GI50: 0.621 µM
  TGI: 2.36 µM
NCI-H460 lung
  GI50: 2.79 µM
  TGI: 12.4 µM
MCF7 breast
  GI50: 0.634 µM
  TGI: 11.9 µM
CCRF-CEM leukemia
  GI50: 3.43 µM
  TGI: 15.9 µM
NCI-H23 lung
  GI50: 3.04 µM
  TGI: 18.6 µM
SNB-19 CNS
  GI50: 4.87 µM
  TGI: 22.6 µM
A549 NSCLC
  GI50: 3.75 µM
  TGI: 16.1 µM
ACHN renal
  GI50: 2.5 µM
  TGI: 12.5 µM
TK-10 renal
  GI50: 8.18 µM
  TGI: 20.7 µM
HOP-62 NSCLC
  GI50: 2.23 µM
  TGI: 13.5 µM
M14 melanoma
  GI50: 1.53 µM
  TGI: 4.16 µM
RPMI-8226 leukemia
  GI50: 2.8 µM
  TGI: 15.1 µM
UACC-257 melanoma
  GI50: 1.9 µM
  TGI: 4.42 µM
HT29 colon
  GI50: 1.9 µM
  TGI: 11 µM
A498 renal
  GI50: 1.52 µM
  TGI: 5.48 µM
SR leukemia
  GI50: 0.685 µM
  TGI: 8.53 µM
HCT-116 colon
  GI50: 3.04 µM
  TGI: 12 µM
SF-268 CNS
  GI50: 2.81 µM
  TGI: 14.4 µM
SNB-75 CNS
  GI50: 0.825 µM
  TGI: 3.3 µM
LOX IMVI melanoma
  GI50: 1.91 µM
  TGI: 11.8 µM
